{"source": "patent US20260070945A1", "about": "“MACROCYCLIC IMMUNOMODULATORS” (Bristol-Myers Squibb Company, priority 2022, published 2026)", "biological_target": "T1, PD-1/PD-L1 interaction (PE-labeled human PD-L1-Ig binding to Jurkat cell line over-expressing human PD-1) (Homo sapiens, UniProt Q15116)", "T1 construct": "expressed in transfected cells; host or cells: Jurkat", "T1 sequence (Q15116 25-288)": "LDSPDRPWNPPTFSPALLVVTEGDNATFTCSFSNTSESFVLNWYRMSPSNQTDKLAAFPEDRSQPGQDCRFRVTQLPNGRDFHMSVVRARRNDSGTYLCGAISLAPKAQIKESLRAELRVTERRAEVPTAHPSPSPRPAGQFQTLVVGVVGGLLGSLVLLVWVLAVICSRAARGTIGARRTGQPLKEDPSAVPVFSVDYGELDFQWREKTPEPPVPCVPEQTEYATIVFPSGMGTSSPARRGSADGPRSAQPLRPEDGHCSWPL", "test": "Jurkat-PD-1 Cell Binding High-Content Screening Assay (CBA)", "summary_of_the_method": "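Jurkat-hPD-1 cells (8×10^3/well) in DMEM with 10% fetal calf serum were preincubated with compound for 2 h at 37 °C. PE-labeled PD-L1-Ig was then added at 20 nM final for 1 h. Cells were fixed in paraformaldehyde with Hoechst 33342, washed and imaged by high-content imaging.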", "key": {"[1]": {"settings": "Jurkat-hPD-1 cells, PE-labeled PD-L1-Ig 20 nM final; read-out: Jurkat HPD1 PDL1 IC50"}}, "note": "Read-outs that look alike come from different tables or passages of the source. Where a SMILES comes first, the peptide text is derived from it. Bridges are numbered along the chain shown (N, C = ends). [ ]: non-standard residue; d: D form. The star is where a group is joined. Trp(1-CH2COOH) = N[C@@H](Cc1cn(CC(=O)O)c2ccccc12)C(=O)O; Phe(4-COOH) = N[C@@H](Cc1ccc(C(=O)O)cc1)C(=O)O; Bip = N[C@@H](Cc1ccc(-c2ccccc2)cc1)C(=O)O; Phe(3-Me) = Cc1cccc(C[C@H](N)C(=O)O)c1; NH(CH2)12COOH = O=C(O)CCCCCCCCCCCCN*; Val(3-OH) = CC(C)(O)[C@H](N)C(=O)O; 4Pal = N[C@@H](Cc1ccncc1)C(=O)O; Cha = N[C@@H](CC1CCCCC1)C(=O)O; Carboxymethyl = O=C(O)C*; NMeA = CN[C@@H](C)C(=O)O; Orn = NCCC[C@H](N)C(=O)O; Aun = NCCCCCCCCCCC(=O)O; Dab = NCC[C@H](N)C(=O)O; Dap = NC[C@H](N)C(=O)O; AEEA = NCCOCCOCC(=O)O", "data": [{"smiles": "CC(C)C[C@@H]1NC(=O)[C@H](Cc2c[nH]c3ccccc23)NC(=O)[C@H](CC(=O)O)NC(=O)[C@H](Cc2ccncc2)NC(=O)[C@H](Cc2ccc(OCC(=O)O)cc2)NC(=O)CSC[C@@H](C(=O)N[C@@H](CCCNC(=N)N)C(=O)NCCCCCCCCCCC(=O)O)NC(=O)[C@H](CO)NC(=O)[C@H](C(C)C)NC(=O)[C@H](CC2CCCCC2)NC(=O)[C@H](CCN)NC(=O)[C@@H](CC(C)C)NC(=O)[C@H](C)N(C)C(=O)[C@H](C(C)C)NC(=O)[C@H](Cc2ccc(-c3ccccc3)cc2)NC1=O", "note": "[Example 1086] ({CH2CO}-Y(Carboxymethyl)[4Pal]DWL[Bip]V[NMeA][dL][Dab][Cha]VSCR[Aun]-OH; thioether N-14)", "values": [{"measurement": "IC50", "setting": "[1]", "value": 0.031, "unit": "µM"}]}, {"smiles": "CC(=O)NCCCC[C@@H]1NC(=O)[C@H](C(C)(C)O)NC(=O)[C@H](CC2CCCCC2)NC(=O)[C@H](CCN)NC(=O)[C@@H](CC(C)C)NC(=O)[C@H](C)N(C)C(=O)[C@H](CCC(N)=O)NC(=O)[C@H](Cc2ccc(-c3ccccc3)cc2)NC(=O)[C@H](Cc2ccc(C(=O)O)cc2)NC(=O)[C@H](Cc2cccc(C)c2)NC(=O)[C@H](CC(=O)O)NC(=O)[C@H](Cc2ccc(OCC(=O)O)cc2)NC(=O)[C@H](Cc2ccc(OCC(=O)O)cc2)NC(=O)CSC[C@@H](C(=O)N[C@@H](CCN)C(=O)NCCCCCCCCCCCCC(=O)O)NC1=O", "note": "[Example 2563] ({CH2CO}-Y(Carboxymethyl)Y(Carboxymethyl)D[Phe(3-Me)][Phe(4-COOH)][Bip]Q[NMeA][dL][Dab][Cha][Val(3-OH)]K(Ac)C[Dab]-{NH(CH2)12COOH}; thioether N-14)", "values": [{"measurement": "IC50", "setting": "PE-labeled PD-L1-Ig 20 nM final, Jurkat-hPD-1 cells; read-out: Jurkat HPD1 PDL1 IC50", "value": 0.0046, "unit": "µM"}]}, {"smiles": "Cc1cccc(C[C@@H]2NC(=O)[C@H](CC(=O)O)NC(=O)[C@H](Cc3cn(CC(=O)O)c4ccccc34)NC(=O)[C@H]([C@@H](C)O)NC(=O)CSC[C@@H](C(=O)N[C@@H](CCN)C(=O)NCCCCCCCCCCC(=O)O)NC(=O)[C@H]([C@@H](C)O)NC(=O)[C@H](C(C)C)NC(=O)[C@H](CC3CCCCC3)NC(=O)[C@H](CCN)NC(=O)[C@@H](CC(C)C)NC(=O)[C@H](C)N(C)C(=O)[C@H](Cc3ccc(OCC(=O)O)cc3)NC(=O)[C@H](Cc3ccc(-c4ccccc4)cc3)NC(=O)[C@H](Cc3ccc(OCC(=O)O)cc3)NC2=O)c1", "note": "[Example 1304] ({CH2CO}-T[Trp(1-CH2COOH)]D[Phe(3-Me)]Y(Carboxymethyl)[Bip]Y(Carboxymethyl)[NMeA][dL][Dab][Cha]VTC[Dab][Aun]-OH; thioether N-14)", "values": [{"measurement": "IC50", "setting": "[1]", "value": 0.0446, "unit": "µM"}]}, {"smiles": "CC(C)C[C@@H]1NC(=O)[C@H](Cc2c[nH]c3ccccc23)NC(=O)[C@H](CC(=O)O)NC(=O)[C@H](Cc2ccncc2)NC(=O)[C@H](Cc2ccc(OCC(=O)O)cc2)NC(=O)CSC[C@@H](C(=O)N[C@@H](CN)C(=O)NCCOCCOCC(=O)NCCCCCCCCCCC(=O)O)NC(=O)[C@H](CO)NC(=O)[C@H](C(C)C)NC(=O)[C@H](CC2CCCCC2)NC(=O)[C@H](CCN)NC(=O)[C@@H](CC(C)C)NC(=O)[C@H](C)N(C)C(=O)[C@H](C(C)C)NC(=O)[C@H](Cc2ccc(-c3ccccc3)cc2)NC1=O", "note": "[Example 1088] ({CH2CO}-Y(Carboxymethyl)[4Pal]DWL[Bip]V[NMeA][dL][Dab][Cha]VSC[Dap][AEEA][Aun]-OH; thioether N-14)", "values": [{"measurement": "IC50", "setting": "[1]", "value": 0.0071, "unit": "µM"}]}, {"smiles": "CC(C)C[C@@H]1NC(=O)[C@H](Cc2c[nH]c3ccccc23)NC(=O)[C@H](CC(=O)O)NC(=O)[C@H](Cc2ccc(OCC(=O)O)cc2)NC(=O)[C@H](Cc2ccc(OCC(=O)O)cc2)NC(=O)CSC[C@@H](C(=O)N[C@@H](CCCCN)C(=O)NCCCCCCCCCCC(=O)O)NC(=O)[C@H](CCCN)NC(=O)[C@H](C(C)C)NC(=O)[C@H](CC2CCCCC2)NC(=O)[C@H](CCN)NC(=O)[C@@H](CC(C)C)NC(=O)[C@H](C)N(C)C(=O)[C@H](C(C)C)NC(=O)[C@H](Cc2ccc(-c3ccccc3)cc2)NC1=O", "note": "[Example 2157] ({CH2CO}-Y(Carboxymethyl)Y(Carboxymethyl)DWL[Bip]V[NMeA][dL][Dab][Cha]V[Orn]CK[Aun]-OH; thioether N-14)", "values": [{"measurement": "IC50", "setting": "[1]", "value": 0.021, "unit": "µM"}]}]}
